Patent publication US6355799B1, “Substituted benzene compounds, process for their preparation, and herbicidal and defoliant compositions containing them” (ISK Americas Incorporated, priority 1997, dated 2002)

Assays:
Type in all cases: in vivo
[1] = test system: redroot pigweed (Amaranthus retroflexus, AMARE); assay: Pre-emerge test, greenhouse herbicide activity screening; conditions: pre-emerge, 14 days after application, rating scale 0-100
How it was run: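 Plants grown in 10 cm pots of sandy loam mix received acetone-dissolved compounds through a moving flat-fan nozzle. Doses ranged from 15 to 1000 g ai/ha. Pre-emerge pots were seeded one day earlier, post-emerge pots 8–21 days earlier. Fourteen days on, each pot was graded 0–100 for damage.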

[2] = test system: barnyardgrass (Echinochloa crus-galli, ECHCG); assay: as above; conditions: pre-emerge, 14 days after application, rating scale 0-100
Excerpt: (§1) A standard greenhouse herbicide activity screening system was used to evaluate the herbicidal efficacy and crop safety of these test compounds. Seven broadleaf weed species including redroot pigweed (Amaranthus retroflexus, AMARE, velvetleaf (Abutilon theophrasti, ABUTH), sicklepod (Cassia obtusifolia, CASOB), ivyleaf morningglory (Ipomoea hederacea, IPOHE), lambsquarters (Chenopodium album, CHEAL), common ragweed (Ambrosia artemisizfolia L., AMBEL), and cocklebur (Xanthium strumarium, XANST) were used as test species. Four grass weed species including green foxtail (Setaria viridis, SETVI), barnyardgrass (Echinochloa crus-galli, ECHCG), johnsongrass (Sorghum halepense, SORHA), and large crabgrass (Digitaria sanguinalis, DIGSA) were also used. In addition, three crop species, field corn (Zea mays L., var. Dekalb 535, CORN), soybean (Glycine max L., var. Pella 86, SOY), and is upland rice (Oryza sp., var. Tebonnet, RICE) were included.
(§2) All plants were grown in 10 cm square plastic pots which were filled with a sandy loam soil mix. For pre-emerge tests, seeds were planted one day prior to application of the test compounds. For post-emerge tests, seeds were planted 8-21 days prior to the test to allow emergence and good foliage development prior to application of the test substances. At the time of the post-emerge application, plants of all species were usually at the 2-3 leaf stage of development.
(§3) All test compounds Were dissolved in acetone and applied to the test units in a volume of 187 l /ha. Test materials were applied at rates ranging from 15 g ai/ha to 1000 g ai/ha using a track sprayer equipped with a TJ8001E even flow flat fan spray nozzle. Plants were arranged on a shelf so that the top of the canopy (post-emerge) or top of the soil surface (pre-emerge) was 40-45 cm below the nozzle. Pressurized air was used to force the test solution through the nozzle as it was mechanically advanced (via electrically driven chain drive) over the top of all test plants/pots. This application simulates a typical commercial field herbicide application.
(§4) In the post-emerge test, a commercial non-ionic surfactant was also included (0.25% v/v) to enhance wetting of the leaf surfaces of target plants. Immediately after application, test units of the pre-emerge applications were watered at the soil surface to incorporate the test materials. Subsequently, these test units were bottom-watered. Post-emerge test units were always bottom-watered.
(§5) At 14 days after application of the test materials, phytotoxicity ratings were recorded. A rating scale of 0-100 was used as previously described in Research Methods in Weed Science, 2nd edition, B. Truelove, Ed., Southern Weed Science Society, Auburn University, Auburn, Ala. 1977. Briefly, “0” corresponds to no damage and “100” corresponds to complete death of all plants in the test unit. This scale was used both to determine efficacy against weed species and damage to crop species. Herbicide activity data for various compounds of this invention, which are shown by compound No. in Tables 1-8, are shown in Tables 11 and 12.

[3] = test system: green foxtail (Setaria viridis, SETVI); assay: as above; conditions: pre-emerge, 14 days after application, rating scale 0-100
Excerpt: as §1, §2, §3, §4, §5

[4] = test system: ivyleaf morningglory (Ipomoea hederacea, IPOHE); assay: as above; conditions: pre-emerge, 14 days after application, rating scale 0-100
Excerpt: as §1, §2, §3, §4, §5

[5] = test system: lambsquarters (Chenopodium album, CHEAL); assay: as above; conditions: pre-emerge, 14 days after application, rating scale 0-100
Excerpt: as §1, §2, §3, §4, §5

[6] = test system: large crabgrass (Digitaria sanguinalis, DIGSA); assay: as above; conditions: pre-emerge, 14 days after application, rating scale 0-100
Excerpt: as §1, §2, §3, §4, §5

[7] = test system: sicklepod (Cassia obtusifolia, CASOB); assay: as above; conditions: pre-emerge, 14 days after application, rating scale 0-100
Excerpt: as §1, §2, §3, §4, §5

[8] = test system: velvetleaf (Abutilon theophrasti, ABUTH); assay: as above; conditions: pre-emerge, 14 days after application, rating scale 0-100
Excerpt: as §1, §2, §3, §4, §5

[9] = test system: field corn (Zea mays L., var. Dekalb 535, CORN); assay: Pre-emerge test, crop safety; conditions: pre-emerge, 14 days after application, rating scale 0-100
How it was run: (§6)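 Herbicidal damage is scored 0 (none) to 100 (complete plant death) two weeks after a simulated field spray. Rates span 15–1000 g ai/ha, delivered in acetone at 187 l/ha. For post-emergence treatments, plants have 2–3 leaves and the spray carries 0.25% v/v non-ionic surfactant.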

[10] = test system: upland rice (Oryza sp., var. Tebonnet, RICE); assay: Pre-emerge test, crop safety; conditions: pre-emerge, 14 days after application, rating scale 0-100
How it was run: as §6

[11] = test system: barnyardgrass (Echinochloa crus-galli, ECHCG); assay: Post-emerge test, greenhouse herbicide activity screening; conditions: post-emerge, 14 days after application, rating scale 0-100
Excerpt: as §1, §2, §3, §4, §5

[12] = test system: green foxtail (Setaria viridis, SETVI); assay: as above; conditions: post-emerge, 14 days after application, rating scale 0-100
Excerpt: as §1, §2, §3, §4, §5

[13] = test system: ivyleaf morningglory (Ipomoea hederacea, IPOHE); assay: as above; conditions: post-emerge, 14 days after application, rating scale 0-100
Excerpt: as §1, §2, §3, §4, §5

[14] = test system: lambsquarters (Chenopodium album, CHEAL); assay: as above; conditions: post-emerge, 14 days after application, rating scale 0-100
Excerpt: as §1, §2, §3, §4, §5

[15] = test system: large crabgrass (Digitaria sanguinalis, DIGSA); assay: as above; conditions: post-emerge, 14 days after application, rating scale 0-100
Excerpt: as §1, §2, §3, §4, §5

[16] = test system: redroot pigweed (Amaranthus retroflexus, AMARE); assay: as above; conditions: post-emerge, 14 days after application
Excerpt: as §1, §2, §3, §4, §5

[17] = test system: sicklepod (Cassia obtusifolia, CASOB); assay: as above; conditions: post-emerge, 14 days after application, rating scale 0-100
Excerpt: as §1, §2, §3, §4, §5

[18] = test system: velvetleaf (Abutilon theophrasti, ABUTH); assay: as above; conditions: post-emerge, 14 days after application, rating scale 0-100
Excerpt: as §1, §2, §3, §4, §5

[19] = test system: field corn (Zea mays L., var. Dekalb 535, CORN); assay: Post-emerge test, crop safety; conditions: post-emerge, 14 days after application, rating scale 0-100
How it was run: (§7)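 Applied at 15–1000 g ai/ha from acetone in 187 l/ha spray volume. Post-emergence applications included 0.25% v/v non-ionic surfactant and reached plants sown 8–21 days before. Pre-emergence applications were incorporated by surface watering. Efficacy or crop damage was rated on a 0–100 scale after 14 days.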

[20] = test system: upland rice (Oryza sp., var. Tebonnet, RICE); assay: Post-emerge test, crop safety; conditions: post-emerge, 14 days after application, rating scale 0-100
How it was run: as §7

COc1c(Cl)cc(F)c(-n2c(=O)cc(C(F)(F)F)n(C)c2=O)c1NNC(=O)c1ccc2ccccc2c1 [15-5]
phytotoxicity rating AMARE ([1]; 63 g ai/ha): 100 | phytotoxicity rating AMARE ([1]; 250 g ai/ha): 100 | phytotoxicity rating ECHCG ([2]; 63 g ai/ha): 70 | phytotoxicity rating ECHCG ([2]; 250 g ai/ha): 99 | phytotoxicity rating SETVI ([3]; 63 g ai/ha): 100 | phytotoxicity rating SETVI ([3]; 250 g ai/ha): 100 | phytotoxicity rating IPOHE ([4]; 63 g ai/ha): 100 | phytotoxicity rating IPOHE ([4]; 250 g ai/ha): 100 | phytotoxicity rating CHEAL ([5]; 63 g ai/ha): 100 | phytotoxicity rating CHEAL ([5]; 250 g ai/ha): 100 | phytotoxicity rating DIGSA ([6]; 63 g ai/ha): 100 | phytotoxicity rating DIGSA ([6]; 250 g ai/ha): 100 | phytotoxicity rating CASOB ([7]; 63 g ai/ha): 100 | phytotoxicity rating CASOB ([7]; 250 g ai/ha): 100 | phytotoxicity rating ABUTH ([8]; 63 g ai/ha): 100 | phytotoxicity rating ABUTH ([8]; 250 g ai/ha): 100 | phytotoxicity rating CORN ([9]; 63 g ai/ha): 80 | phytotoxicity rating CORN ([9]; 250 g ai/ha): 99 | phytotoxicity rating RICE ([10]; 63 g ai/ha): 70 | phytotoxicity rating RICE ([10]; 250 g ai/ha): 99 | Post-emerge Herbicidal Activity ECHCG (phytotoxicity rating) ([11]; 63 g ai/ha): 40 | Post-emerge Herbicidal Activity ECHCG (phytotoxicity rating) ([11]; 250 g ai/ha): 90 | Post-emerge Herbicidal Activity SETVI (phytotoxicity rating) ([12]; 63 g ai/ha): 40 | Post-emerge Herbicidal Activity SETVI (phytotoxicity rating) ([12]; 250 g ai/ha): 80 | Post-emerge Herbicidal Activity IPOHE (phytotoxicity rating) ([13]; 63 g ai/ha): 90 | Post-emerge Herbicidal Activity IPOHE (phytotoxicity rating) ([13]; 250 g ai/ha): 100 | Post-emerge Herbicidal Activity CHEAL (phytotoxicity rating) ([14]; 63 g ai/ha): 100 | Post-emerge Herbicidal Activity CHEAL (phytotoxicity rating) ([14]; 250 g ai/ha): 100 | Post-emerge Herbicidal Activity DIGSA (phytotoxicity rating) ([15]; 63 g ai/ha): 30 | Post-emerge Herbicidal Activity DIGSA (phytotoxicity rating) ([15]; 250 g ai/ha): 70 | Post-emerge Herbicidal Activity AMARE (phytotoxicity rating) ([16]; 63 g ai/ha, rating scale 0-100 (0 no damage, 100 complete death)): 70 | Post-emerge Herbicidal Activity AMARE (phytotoxicity rating) ([16]; 250 g ai/ha, rating scale 0-100): 100 | Post-emerge Herbicidal Activity CASOB (phytotoxicity rating) ([17]; 63 g ai/ha): 40 | Post-emerge Herbicidal Activity CASOB (phytotoxicity rating) ([17]; 250 g ai/ha): 80 | Post-emerge Herbicidal Activity ABUTH (phytotoxicity rating) ([18]; 63 g ai/ha): 100 | Post-emerge Herbicidal Activity ABUTH (phytotoxicity rating) ([18]; 250 g ai/ha): 100 | Post-emerge Herbicidal Activity CORN (crop damage rating) ([19]; 63 g ai/ha): 70 | Post-emerge Herbicidal Activity CORN (crop damage rating) ([19]; 250 g ai/ha): 90 | Post-emerge Herbicidal Activity RICE (crop damage rating) ([20]; 63 g ai/ha): 60 | Post-emerge Herbicidal Activity RICE (crop damage rating) ([20]; 250 g ai/ha): 90
